The values below come from ChEMBL document CHEMBL1152028, “The synthesis of 8,8-disubstituted tricyclic analogs of artemisinin” (Bioorg Med Chem Lett, 1997).

As usually defined, the IC50 is the concentration that inhibits the measured activity by half. Read a high IC50 as weaker potency in that assay.

In brackets after ≈: the same amount, converted by molar mass.

The subject of the assay is Plasmodium falciparum. Kind of assay: In vitro inhibition of Plasmodium falciparum W2. It is filed as functional, organism-based.
`C[C@@H]1CC[C@H]2[C@@H](C)C(=O)O[C@@H]3O[C@@]4(C)CC[C@@H]1[C@]32OO4` [ARTEMISININ]: the IC50 turned out to be 0.0042 µg/mL (≈ 0.0149 µM).

For the compound `C[C@@]12CC[C@H]3CC[C@@](C)(c4ccccc4)C[C@]3(CO1)OO2`, inhibition was half-maximal at 0.132 µg/mL (≈ 0.458 µM) (IC50).

Compound `C[C@@]12CC[C@H]3CC[C@](C)(c4ccccc4)C[C@]3(CO1)OO2` showed an IC50 of 0.013 µg/mL (≈ 0.0451 µM).
